Laboratory results reported in US5466675A, “Immunological activity of rhamnolipids” (priority 1992, dated 1995).

Experiments:
[1] = system: acetylcholinesterase; assay: enzyme inhibition, acetylcholinesterase; format: biochemical
Procedure: (§1) Rhamnolipid (II) was tested in vitro against a wide array of enzymes.
(§2) The following enzymes were inhibited at the various rhamnolipid concentrations indicated:
(§3) All enzyme assays were done spectrophotometrically by computer linked automatic microplate reader (Labsystem Multiskan) and Diode Array spectrophotometer (Perkin Elmer).

[2] = system: trypsin; assay: enzyme inhibition, trypsin; format: biochemical
Procedure: as §1, §2, §3

[3] = system: elastase; assay: enzyme inhibition, elastase; format: biochemical
Procedure: as §1, §3

[4] = system: herpes simplex virus; assay: effect on viruses, herpes simplex; format: cell-based; conditions: concentrations ≤100 ug/ml
Procedure: (§4) Tests were performed according to D. A. Vanden Berghe et al., Inst. Pasteur 84,101 (1986). Rhamnolipid (II) was toxic for VERO cells in concentrations ≥200 ug/ml, and cytotoxic on MT4 cells in concentrations >169.40 ug/ml.

[5] = system: coxsackie B2 virus; assay: effect on viruses, coxsackie B2; format: cell-based; conditions: concentrations ≤100 ug/ml
Procedure: as §4

[6] = system: measles edmonston A virus; assay: effect on viruses, measles edmonston A; format: cell-based; conditions: concentrations ≤100 ug/ml
[7] = system: Escherichia coli; assay: minimum inhibitory concentration, Escherichia coli; format: cell-based; conditions: in tested medium
Text: (§5) The Minimum inhibitory concentration (MIC) of Rhamnolipid II for Candida albicans, Escherichia coli, Staphylococcus aureus and Pseudomonas aeruginosa was >0.5% in tested medium.

[8] = system: Staphylococcus aureus; assay: minimum inhibitory concentration, Staphylococcus aureus; format: cell-based; conditions: in tested medium
Text: as §5

[9] = system: bacterial revertants; assay: Ames test; format: cell-based; conditions: 10, 100, 200, 500, 1000 ug/plate
Procedure: Tests were performed according to the method described by Ames N. Bruce et al. (Mutation Research, 31 (1975), 347- 364). Test concentrations of rhamnolipid (II) were 10, 100, 200, 500, 1000 ug/plate.
In the range of tested rhamnolipid concentrations, the number of bacterial revertants per Petri dish was in the range of spontaneous revertants which are present without S9 mixture. Therefore, it can be concluded that Rhamnolipid (II) was not mutagenic at the tested concentrations.

[10] = system: T-cells isolated from mouse thymus; assay: T-lymphocyte proliferation; format: cell-based
Procedure: Procedure: T-cells were isolated from mouse thymus using conventional procedures, and suspended in DMEM. 5×10^6 cells/ml were incubated overnight at 37° C. to assess stimulation (positive score, related to 3 ug/ml Concanavalin A) or suppression (negative score, related to blank control) of cell proliferation. Test substance was evaluated under these conditions at 10, 1, 0.1, 0.01, 0,001 uM. After overnight incubation, 2 uCi [^3 H] thymidine was added to each well. Cells were harvested after an additional 48 hour incubation, and thymidine incorporation assessed by liquid scintillation counting.

[11] = system: Candida albicans; assay: immunorestoration: immunosuppression with cyclophosphamide and infection with Candida albicans; format: in vivo, mouse (ICR, female); conditions: for Survivor No.: n = 10
Text: […] One day after the last immunosuppressant dose, the mice were challenged with a suspension of C. albicans sufficient to result in 90 to 100 percent mortality within 10 days in the vehicle treated control group. A greater than 30 percent survival for any drug treated group is considered significant, and possibly a result of immunorestorant activity.

[12] = system: blood count in mouse; conditions: in vivo
Text: Activity of Di-rhamnolipid on Blood Count in Mouse
Blood count after application of di-rhamnolipid

[13] = system: Psoriasis; assay: clinical treatment of psoriasis; format: in vivo, human
Procedure: (§6) 17 patients, 11 men and 6 women, were treated with rhamnolipid (II). Among these, 12 patients were suffering from Psoriasis, 2 from Neurodermitis, 1 from Lichen ruber planus, 1 from Serborhoic dermatitis and one from Dermatitis circumscripta unilocularis eczematoides.
All patients were treated by application of a cream containing rhamnolipid II over selected psoriatic localities, 2 times a day for 21 days.
The remaining psoriatic localities on the body were treated with local corticosteroid.
The treatment and the follow-up of the patients was a "double blind" experiment.
The therapeutic efficacy was monitored by PASI-index.
After observing positive results with the first six psoriatic patients, who were treated and monitored until the end of the year, rhamnolipid was applied on larger psoriatic surfaces (up to a half of the patient's body where psoriatic lesions existed). Also, occlusions were used (up to 48 hours) and the duration and usage of occlusions was prolonged up to 35 days.
Patients were seen 3, 6 and 9 months after treatment and they were instructed not to apply any other local preparations at the same localities where rhamnolipic II was applied.

[14] = system: Lichen ruber planus; assay: clinical treatment of lichen ruber planus; format: in vivo, human; conditions: one patient
Procedure: as §6

[15] = system: Dermatitis circumscripta unilocularis; assay: clinical treatment of dermatitis circumscripta unilocularis; format: in vivo, human; conditions: one patient
Procedure: as §6

[16] = system: Psoriasis; conditions: 1% rhamnolipid ointment; Belgium patent No. 1,005,704; cited from earlier work
[17] = in vitro; conditions: human, mt4 cells
[18] = system: mice C57B1/6; assay: range-finding study phase (five doses per five days, one dose per day)
[19] = IP 0.1 × 3 mg/kg + cyclophosphamide
[20] = IP 1 × 3 mg/kg + cyclophosphamide
[21] = IP 10 × 3 mg/kg + cyclophosphamide
[22] = IP 100 × 3 mg/kg + cyclophosphamide
[23] = five doses per five days, intraperitoneal

## CCCCCCCC(CC(=O)O)OC(=O)CC(CCCCCCC)O[C@@H]1O[C@@H](C)[C@H](O)[C@@H](O)[C@H]1O[C@@H]1O[C@@H](C)[C@H](O)[C@@H](O)[C@H]1O (stereo partly drawn) [Rhamnolipid (II), (alpha-L-rhamnopyranosyl-(1,2)alpha-L-rhamnopyranosyl)-3-hydroxydecanoyl-3-hydroxydecanoic acid]
[1]
  concentration at which the enzyme was inhibited: 1 mg/mL
[2]
  concentration at which the enzyme was inhibited: 1 mg/mL
[3]
  effect on enzyme: no effect
[4]
  antiviral activity: no activity
[5]
  antiviral activity: no activity
[6]
  antiviral activity: no activity
[7]
  Minimum inhibitory concentration (MIC): > 0.5%
[8]
  Minimum inhibitory concentration (MIC): > 0.5%
[9]
  mutagenicity (Ames test): not mutagenic
[9]; listed as rhamnolipid II
  mutagenicity (Ames test): negative
[10]; 10 uM, without Con A
  T-cell proliferation: inhibited
[10]; 10 uM, without ConA
  in vitro T cell immunosuppression activity: T cell immunosuppression activity
[10]; Mus musculus, T-cell, 0.001 uM, 0.5% DMSO, read-out: % Stimulation (+)/Suppression (-)
  activation at 0.001 µM: -2%
[10]; Mus musculus, T-cell, 0.01 uM, 0.5% DMSO, read-out: % Stimulation (+)/Suppression (-)
  activation at 0.01 µM: 0%
[10]; Mus musculus, T-cell, 0.1 uM, 0.5% DMSO, read-out: % Stimulation (+)/Suppression (-)
  activation at 0.1 µM: 1%
[10]; Mus musculus, T-cell, 1 uM, 0.5% DMSO, read-out: % Stimulation (+)/Suppression (-)
  activation at 1 µM: -3%
[10]; Mus musculus, T-cell, 10 uM, 0.5% DMSO, read-out: % Stimulation (+)/Suppression (-)
  activation at 10 µM: -24%
[11]; [19]
  Death, days post-inoculum 0-1: 2 #/10 Mice
  Death, days post-inoculum 2-3: 1 #/10 Mice
  Death, days post-inoculum 4-6: 1 #/10 Mice
  Death, days post-inoculum 7-9: 2 #/10 Mice
  Response Inc. %: 20%
  Survivor No.: 4
[11]; [20]
  Death, days post-inoculum 0-1: 2 #/10 Mice
  Death, days post-inoculum 2-3: 2 #/10 Mice
  Death, days post-inoculum 4-6: 1 #/10 Mice
  Death, days post-inoculum 7-9: 1 #/10 Mice
  Response Inc. %: 20%
  Survivor No.: 4
[11]; [21]
  Death, days post-inoculum 0-1: 2 #/10 Mice
  Death, days post-inoculum 2-3: 1 #/10 Mice
  Death, days post-inoculum 4-6: 1 #/10 Mice
  Death, days post-inoculum 7-9: 0 #/10 Mice
  Response Inc. %: 40%
  Survivor No.: 6
[11]; [22]
  Death, days post-inoculum 0-1: 1 #/10 Mice
  Death, days post-inoculum 2-3: 1 #/10 Mice
  Death, days post-inoculum 4-6: 1 #/10 Mice
  Death, days post-inoculum 7-9: 0 #/10 Mice
  Response Inc. %: 50%
  Survivor No.: 7
[11]; summary, no dose stated
  in vivo immunorestoration activity: very strong
[12]
  Lymphocyts: 53.40 +/- 11.14
  lymphocytes: 56.50 +/- 12.02
  nRBC: 0
[12]; iv, 7.5 mg/kg
  change in lymphocytes: decreased
  change in neutrophils: significantly increased
[13]; 1% concentration
  curative effects in comparison with corticosteroids: long-lasting curative effects
[13]; 1% concentration, some patients
  remission of the treated area: still in remission of the treated area after three years
[13]; 10 months after treatment, versus local corticosteroid
  appearance of relapses: significantly delayed
[13]; cream, 2 times a day for 21 days, follow up 3, 6 and 9 months
  results on psoriatic lesions: good results
[13]; in most cases
  time to curative effect versus local corticosteroid: sooner or in the same period of time it took local corticosteroid
[13]; some patients, 10 months following the treatment, larger surfaces, occlusions
  relapses: no relapses were observed even after 10 months
[14]
  cure: completely cured
[15]
  cure: completely cured
[16]
  activity in treatment of Psoriasis: strong activity
[17]
  MCC: > 169 µg/mL
[18]; [23]
  lower bracket dose (LBD): 45 mg/kg
  single dose toxicity: 5 mg/kg
  upper bracket dose (UBD): 125 mg/kg
[18]; fourth day after application
  basophiles: significant increase
  eosinophiles: significant increase
  lymphocytes: significant decrease
  neutrophils: significant increase
[18]; observation period
  behavior and appearance of treated mice: no changes
